Measurements from patent US20100249058A1, “FEED ADDITIVE AND FEED” (IDEMITSU KOSAN CO., LTD., priority 2006, published 2010).

Key:
Format in all cases: cell-based
[1] = system: Bacillus subtilis; assay: Minimum inhibitory concentration (MIC) measurement; conditions: 37° C., about 20 hours, aerobic
Experimental: (§1) Minimum inhibitory concentrations (MICs) of each of the bacteria shown in Table 1 were measured for the MEL and rhamnolipids by the following procedures.
(§2) The above-mentioned bacteria were precultured in a bouillon medium for sensitivity determination (NISSUI PHARMACEUTICAL CO., LTD.). The concentrations of the bacteria in the culture solutions were adjusted to about 1.0×10^5 to 10^6 CFU/ml with physiological saline, and the bacteria were inoculated into the measurement mediums. As the measurement mediums, a medium for sensitivity measurement (NISSUI PHARMACEUTICAL CO., LTD.) was used for Staphylococcus aureus, Staphylococcus epidermidis, and Bacillus subtilis, and a blood agar medium (heart infusion medium: NISSUI PHARMACEUTICAL CO., LTD., sheep sterile defibrinated blood: Kohjin Bio Co. Ltd.) was used for Streptococcus suis and Streptococcus bovis. Culture was performed at 37° C. for about 20 hours under aerobic conditions for Staphylococcus aureus, Staphylococcus epidermidis, and Bacillus subtilis or under 5% CO2 conditions for Streptococcus suis and Streptococcus bovis. After completion of culture, the MICs were measured.
(§3) The MEL crude purified product obtained in section <1> (purity 69%) was used as MEL, and the rhamnolipid crude purified product obtained in section <2> (purity 55%) was used as rhamnolipids. Meanwhile, for the purpose of comparison, MICs of sucrose ester (sucrose manodecanoate: manufactured by SIGMA-ALDRICH Japan K.K.), mannose (manufactured by Wako Pure Chemical Industries, Ltd.), and rhamnose (manufactured by SIGMA-ALDRICH Japan K.K.) were measured.

[2] = system: Staphylococcus aureus; assay: Minimum inhibitory concentration (MIC) measurement; conditions: 37° C., about 20 hours, aerobic
Experimental: as §1, §2, §3

[3] = system: Staphylococcus epidermidis; assay: Minimum inhibitory concentration (MIC) measurement; conditions: 37° C., about 20 hours, aerobic
Experimental: as §1, §2, §3

[4] = system: Streptococcus bovis; assay: Minimum inhibitory concentration (MIC) measurement; conditions: blood agar medium, 37° C., about 20 hours, 5% CO2
Experimental: as §1, §2, §3

[5] = system: Streptococcus suis; assay: Minimum inhibitory concentration (MIC) measurement; conditions: blood agar medium, 37° C., about 20 hours, 5% CO2
Experimental: as §1, §2, §3

[6] = system: Staphylococcus, Streptococcus, and Bacillus bacteria; assay: Evaluation of antibiotic activities (summary over the tested bacteria); conditions: result in words
Experimental: as §1
as §2, with “Culture was performed at 37° C. for about 20 hours under aerobic conditions for Staphylococcus aureus, Staphylococcus epidermidis, and Bacillus subtilis or under 5% CO2 conditions for Streptococcus suis and Streptococcus bovis.” left out
as §3

Compound | Minimum inhibitory concentration (MIC) [1] | Minimum inhibitory concentration (MIC) [2] | Minimum inhibitory concentration (MIC) [3] | Minimum inhibitory concentration (MIC) [4] | Minimum inhibitory concentration (MIC) [5] | antibiotic activities [6]
C[C@H](O)[C@H](O)[C@@H](O)[C@@H](O)C=O [Rhamnose, rhamnose] | <1600 | <1600 | <1600 | <1600 | <1600 | no antibiotic activities
sucrose manodecanoate [Sucrose ester] | 400 | <1600 | <1600 | 800 | 800 | 
